Assay [1] concerns Calvarial osteoblast. Description: Osteogenic activity in rat primary calvarial osteoblasts at 10 nM after 48 hrs by ALP-based colorimetric assay. The format is functional, cell-based.
Assay [2] has as its system Calvarial osteoblast. The assay is described as follows: Induction of cell proliferation in rat primary calvarial osteoblasts at 10 nM nM after 48 hrs by BrDU-staining based assay relative to control. The class given is functional.
Assay [3] deals with Rattus norvegicus. The assay is described as follows: Induction of bone formation in rat assessed as increase in mineral appositional rate in calvarial osteoblasts at 5 mg/kg/day, sc dosed for 3 days by dynamic histomorphometric analysis relative to control. The class given is functional.
Assay [4] has as its system Rattus norvegicus. The assay is described as follows: Osteogenic activity in rat assessed as upregulation of COL-1 mRNA expression in calvarial osteoblasts at 5 mg/kg/day, sc dosed for 3 days by RT-PCR analysis relative to control. The format is functional.
In assay [5] the test system is Rattus norvegicus. Description: Osteogenic activity in rat assessed as upregulation of RunX-2 mRNA expression in calvarial osteoblasts at 1 mg/kg/day, sc dosed for 3 days by RT-PCR analysis relative to control. The format is functional.
The test system of assay [6] is Rattus norvegicus. Description: Osteogenic activity in rat assessed as upregulation of ALP mRNA expression in calvarial osteoblasts at 5 mg/kg/day, sc dosed for 3 days by RT-PCR analysis relative to control. The format is functional.
Assay [7] has as its system Rattus norvegicus. The assay is described as follows: Induction of bone formation in rat assessed as increase in bone-formation rate in calvarial osteoblasts at 10 mg/kg/day, sc dosed for 3 days by dynamic histomorphometric analysis relative to control. The class given is functional.
Assay [8] concerns Rattus norvegicus. Description: Osteogenic activity in rat assessed as upregulation of RunX-2 mRNA expression in calvarial osteoblasts at 5 mg/kg/day, sc dosed for 3 days by RT-PCR analysis relative to control. The format is functional.
In assay [9] the test system is Rattus norvegicus. The assay is described as follows: Induction of bone formation in rat assessed as increase in mineral appositional rate in calvarial osteoblasts at 1 mg/kg/day, sc dosed for 3 days by dynamic histomorphometric analysis relative to control. The format is functional.
The test system of assay [10] is Rattus norvegicus. The assay is described as follows: Induction of bone formation in rat assessed as increase in bone-formation rate in calvarial osteoblasts at 5 mg/kg/day, sc dosed for 3 days by dynamic histomorphometric analysis relative to control. The class given is functional.
In assay [11] the test system is Calvarial osteoblast. Description: Induction of cell proliferation in rat primary calvarial osteoblasts at 0.1 to 10 nM after 48 hrs by BrDU-staining based assay relative to control. The class given is functional.
Assay [12] relates to Rattus norvegicus. Description: Osteogenic activity in rat assessed as upregulation of RunX-2 mRNA expression in calvarial osteoblasts at 0.5 mg/kg/day, sc dosed for 3 days by RT-PCR analysis relative to control. The format is functional.
The subject of assay [13] is Rattus norvegicus. The assay is described as follows: Osteogenic activity in rat assessed as upregulation of COL-1 mRNA expression in calvarial osteoblasts at 1 mg/kg/day, sc dosed for 3 days by RT-PCR analysis relative to control. The class given is functional.
Assay [14] is described as follows: Upregulation of RunX-2 mRNA expression in rat primary calvarial osteoblasts at 100 pM by RT-PCR analysis relative to control. The following applies: Calvarial osteoblast. The class given is functional, cell-based.
Assay [15] deals with Rattus norvegicus. Description: Induction of bone formation in rat assessed as increase in bone-formation rate in calvarial osteoblasts at 1 mg/kg/day, sc dosed for 3 days by dynamic histomorphometric analysis relative to control. The format is functional.
Assay [16] relates to Rattus norvegicus. Description: Osteogenic activity in rat assessed as upregulation of RunX-2 mRNA expression in calvarial osteoblasts at 10 mg/kg/day, sc dosed for 3 days by RT-PCR analysis relative to control. The class given is functional.
Assay [17] relates to Calvarial osteoblast. Description: Induction of mineralization in rat primary calvarial osteoblasts assessed as mineralized nodule formation at 0.001 to 10 nM after 12 days by alizarin red S-staining based assay relative to control. The class given is functional, cell-based.
Assay [18] concerns Calvarial osteoblast. The assay is described as follows: Osteogenic activity in rat primary calvarial osteoblasts at 100 pM after 48 hrs by ALP-based colorimetric assay. The class given is functional, cell-based.
Assay [19] is described as follows: Upregulation of ALP mRNA expression in rat primary calvarial osteoblasts at 100 pM by RT-PCR analysis relative to control. The format is functional, cell-based. The following applies: Calvarial osteoblast.
Assay [20] in a line: Upregulation of OCN mRNA expression in rat primary calvarial osteoblasts at 100 pM by RT-PCR analysis relative to control. The class given is functional, cell-based. The following applies: Calvarial osteoblast.
Assay [21] concerns Calvarial osteoblast. The assay is described as follows: Osteogenic activity in rat primary calvarial osteoblasts at 1 pM after 48 hrs by ALP-based colorimetric assay. The class given is functional, cell-based.
The subject of assay [22] is Calvarial osteoblast. Description: Induction of mineralization in rat primary calvarial osteoblasts assessed as mineralized nodule formation at 10 to 1000 nM after 12 days by alizarin red S-staining based assay relative to control. The format is functional, cell-based.
A short description of assay [23]: Upregulation of ALP mRNA expression in rat primary calvarial osteoblasts at 10 nM […] by RT-PCR analysis relative to control. The format is functional, cell-based. The following applies: Calvarial osteoblast.
Assay [24] in a line: Upregulation of OCN mRNA expression in rat primary calvarial osteoblasts at 10 nM by RT-PCR analysis relative to control. The following applies: Calvarial osteoblast. The class given is functional, cell-based.
The nature of assay [25]: Upregulation of RunX-2 mRNA expression in rat primary calvarial osteoblasts at 10 nM by RT-PCR analysis relative to control. The following applies: Calvarial osteoblast. The class given is functional, cell-based.

Molecules are shown by their SMILES. Active and inactive are the calls of the source. No cut-off for these calls is given here.

For `CC(=O)O[C@@H]1C[C@H]2C(C)(C)C(=O)C=C[C@]2(C)[C@H]2CC[C@@]3(C)[C@H](c4ccoc4)C(=O)[C@H]4O[C@]43[C@@]21C`, the outcome in assay [1] was Active.
Turning to `C[C@]12CC[C@@H]3c4ccc(O)cc4CC[C@H]3[C@@H]1CC[C@@H]2O`, the result in assay [2] was Active.
Consider `C/C=C(\C)C(=O)O[C@H]1C[C@@H](OC(C)=O)[C@@]2(C(=O)OC)CO[C@H]3[C@@H](O)[C@@](C)([C@@]45O[C@@]4(C)[C@H]4C[C@@H]5O[C@@H]5OC=C[C@@]54O)[C@H]4[C@]1(CO[C@]4(O)C(=O)OC)[C@@H]32`, for which the “fold change (FC)” value in [3] was 4; in [4] it was 3.5; in assay [5] it was 7; in assay [6], 2; in [7], 3.2; in [8], 7.5. For the same compound, the “fold change (FC)” value in assay [9] is 3.4; in assay [10], 5; in [12], 5; in assay [13] it was 7; in [14], 3.5; in assay [15] it was 4. Moreover, the “fold change (FC)” value turned out to be 3 in assay [16], 4.5 in assay [19] and 3 in [20]. The result in assay [11], in assay [17] and in [18] was Active.
With `C/C=C(\C)C(=O)O[C@H]1C[C@@H](OC(C)=O)[C@@]2(C)CO[C@H]3[C@H]4O[C@@H]5C[C@@H](c6ccoc6)C(C)=C5[C@@]4(C)[C@H](CC(=O)OC)[C@]1(C)[C@@H]32`, in assay [21], the outcome was Active.
As for `CC(=O)O[C@@H]1C[C@H]2C(C)(C)C(=O)C=C[C@]2(C)[C@H]2CC[C@]3(C)C(=CC[C@H]3c3ccoc3)[C@@]21C`, the result in assay [11], in assay [22] and in [18] was Active. Besides, the values for the fold change (FC) in [14] and in [20] were 2.7 and 2.3, respectively. The result in [19] was inactive.
In the case of `C/C=C(\C)C(=O)O[C@@H]1C[C@H](O)[C@]23CO[C@H](C(=O)OC)[C@H]2[C@](C)([C@]24O[C@@]2(C)[C@H]2C[C@@H]4O[C@@H]4OC=C[C@@]42O)[C@H](O)[C@@H]2OC[C@@]1(C(=O)OC)[C@H]23`, the fold change (FC) in [23] was found to be 2.8; in assay [24] it was 2.5; in assay [25] it was 2.5; in assay [19] it was 2.8. Also, the result in assay [11], in assay [17] and in [18] was Active.
